Where a name gives a salt, the structure may show the parent alone.
Biological target: T1, human 5-HT1A receptor (Homo sapiens, UniProt P08908)
T1 construct: expressed in transfected cells; host or cells: CHO cells (stably transfected)
T1 sequence (P08908 1-422): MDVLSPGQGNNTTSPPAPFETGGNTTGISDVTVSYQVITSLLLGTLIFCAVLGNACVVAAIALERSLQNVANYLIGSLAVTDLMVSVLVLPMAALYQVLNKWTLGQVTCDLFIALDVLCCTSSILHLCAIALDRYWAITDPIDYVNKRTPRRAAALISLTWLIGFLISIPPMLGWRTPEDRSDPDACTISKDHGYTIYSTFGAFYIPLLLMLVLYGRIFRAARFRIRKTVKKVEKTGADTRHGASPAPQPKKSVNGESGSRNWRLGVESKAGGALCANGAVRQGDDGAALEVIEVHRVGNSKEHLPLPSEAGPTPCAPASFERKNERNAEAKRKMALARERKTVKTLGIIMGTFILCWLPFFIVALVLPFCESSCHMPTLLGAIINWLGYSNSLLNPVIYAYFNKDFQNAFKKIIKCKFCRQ
Assay: Displacement of [3H] 8-OHDPAT from the 5-HT1A receptor in transfected CHO cells
Assay type: binding
Settings: displacement of [3H] 8-OHDPAT; CHO cells stably transfected with the human 5-HT1A receptor; read-out: 5-HT1A Affinity (IC50)
Source text: Affinity for the serotonin 5-HT1A receptor was established by assaying the test compound's ability to displace [^3H] 8-OHDPAT from its binding site on the receptor complex in CHO cells stably transfected with the human 5-HT1A receptor following the procedure described by J. Dunlop, Y. Zhang, D. Smith and L. Schechter (Eur. J. Pharmacol., submitted; variation of a procedure described by J. Zgombick et al., Naunyn-Schmiedeberg's Arch. Pharmacol., 354, 226-236 (1996)).

Compound	IC50 [nM]
COc1ccccc1N1CCN(C[C@@H](CC2CCCCC2)NC(=O)C2(C)CCCCC2)CC1 [Example 2, 1-Methyl-cyclohexanecarboxylic Acid of {(1R)-1-Cyclohexylmethyl-2-[4-(2-methoxyphenyl)-piperazin-1-yl]-ethyl}-amide]	1.23
COc1ccccc1N1CCN(C[C@@H](CC2CCCCC2)N(C)C(=O)C2CCCCC2)CC1 [Example 3, Cyclohexanecarboxylic Acid {(1R)-1-Cyclohexylmethyl-2-[4-(2-methoxyphenyl)-piperazin-1-yl]-ethyl}-methyl-amide]	1.46
CN(C(=O)C1(C)CCCCC1)[C@H](CC1CCCCC1)CN1CCN(c2cccc3[nH]ccc23)CC1 [Example 8]	32.7
O=C(N[C@H](CC1CCCCC1)CN1CCN(c2nccc3ccccc23)CC1)C1CCCCC1 [Example 14, Cyclohexanecarboxylic Acid {(1R)-1-Cyclohexylmethyl-2-[4-(isoquinolin-1-yl)-piperazin-1-yl]-ethyl}-amide]	1.69
COc1ccccc1C1CCN(C[C@@H](CC2CCCCC2)N(C)C(=O)C(C)(C)C)CC1 [Example 20, N-{(1R)-1-Cyclohexylmethyl-2-[4-(2-methoxyphenyl)-piperidin-1-yl]-ethyl}-2,2,N-trimethyl-propionamide]	5

Biological target: T1, human 5-HT1A receptor
Assay: Antagonist activity: antagonism of 8-OHDPAT inhibition of forskolin-stimulated cAMP accumulation in transfected CHO cells
Assay type: cell-based
Settings: CHO cells with human 5-HT1A receptor
Source text: Methods, 40, 47-55 (1998); variation of a procedure described by J. Zgombick et al., Naunyn-Schmiedeberg's Arch. Pharmacol., 354, 226-236 (1996)].

Compound	IC50 [nM]
COc1ccccc1N1CCN(C[C@@H](CC2CCCCC2)NC(=O)C2(C)CCCCC2)CC1 [Example 2, 1-Methyl-cyclohexanecarboxylic Acid of {(1R)-1-Cyclohexylmethyl-2-[4-(2-methoxyphenyl)-piperazin-1-yl]-ethyl}-amide]	14.6
COc1ccccc1N1CCN(C[C@@H](CC2CCCCC2)N(C)C(=O)C2CCCCC2)CC1 [Example 3, Cyclohexanecarboxylic Acid {(1R)-1-Cyclohexylmethyl-2-[4-(2-methoxyphenyl)-piperazin-1-yl]-ethyl}-methyl-amide]	4

System: not given
Assay: not given
Settings: not given

Compound	melting point [°C]
COc1ccccc1N1CCN(C[C@@H](CC2CCCCC2)NC(=O)C2(C)CCCCC2)CC1 (as salt: hydrochloride) (hydrate or solvate) [Example 2, 1-Methyl-cyclohexanecarboxylic Acid of {(1R)-1-Cyclohexylmethyl-2-[4-(2-methoxyphenyl)-piperazin-1-yl]-ethyl}-amide]	119 to 121
CN(C(=O)C1CCCCC1)[C@H](CC1CCCCC1)CN1CCN(c2cccc3c2OCCO3)CC1 (as salt: hydrochloride) (hydrate or solvate) [Example 5]	147 to 148
CN(C(=O)C1CCCCC1)[C@H](CC1CCCCC1)CN1CCN(c2cccc3[nH]ccc23)CC1 (as salt: hydrochloride) (hydrate or solvate) [Example 7, Cyclohexanecarboxylic Acid {(1R)-1-Cyclohexylmethyl-2-[4-(1H-indol-4-yl)-piperazin-1-yl]-ethyl}-methyl-amide]	> 260
COc1ccccc1N1CCN(C[C@@H](CC2CCCCC2)NC=O)CC1 (as salt: hydrochloride) (hydrate or solvate) [Example 9, N-{(1R)-1-Cyclohexylmethyl-2-[4-(2-methoxyphenyl)-piperazin-1-yl]-ethyl}-formamide]	157 to 159
COc1ccccc1C1CCN(C[C@@H](CC2CCCCC2)NC(=O)C2CCCCC2)CC1 (as salt: hydrochloride) (hydrate or solvate) [Example 15, Cyclohexanecarboxylic Acid {(1R)-1-Cyclohexylmethyl-2-[4-(2-methoxyphenyl)-piperidin-1-yl]-ethyl}-amide]	100 to 103
COc1ccccc1C1CCN(C[C@@H](CC2CCCCC2)NC(=O)C2(C)CCCCC2)CC1 (as salt: hydrochloride) (hydrate or solvate) [Example 16, 1-Methyl-cyclohexanecarboxylic acid {(1R)-1-cyclohexylmethyl-2-[4-(2-methoxyphenyl)-piperidin-1-yl]-ethyl}-amide]	208 to 210
COc1ccccc1C1CCN(C[C@@H](CC2CCCCC2)N(C)C(=O)C2CCCCC2)CC1 (as salt: hydrochloride) (hydrate or solvate) [Example 17, Cyclohexanecarboxylic Acid {(1R)-1-Cyclohexylmethyl-2-[4-(2-methoxyphenyl)-piperidin-1-yl]-ethyl}-methyl-amide]	135 to 137
COc1ccccc1C1CCN(C[C@@H](CC2CCCCC2)N(C)C(=O)C2(C)CCCCC2)CC1 (as salt: hydrochloride) (hydrate or solvate) [Example 18, 1-Methyl-cyclohexanecarboxylic Acid {(1R)-1-Cyclohexylmethyl-2-[4-(2-methoxypheniyl)-piperidin-1-yl]-ethyl}-methyl-amide]	169 to 171
COc1ccccc1C1CCN(C[C@@H](CC2CCCCC2)NC(=O)C(C)(C)C)CC1 (as salt: hydrochloride) (hydrate or solvate) [Example 19, N-{(1R)-1-Cyclohexylmethyl-2-[4-(2-methoxyphenyl)-piperidin-1-yl]-ethyl}-2,2-dimethyl-propionamide]	97 to 99
COc1ccccc1C1CCN(C[C@@H](CC2CCCCC2)N(C)C(=O)C(C)(C)C)CC1 (as salt: hydrochloride) (hydrate or solvate) [Example 20, N-{(1R)-1-Cyclohexylmethyl-2-[4-(2-methoxyphenyl)-piperidin-1-yl]-ethyl}-2,2,N-trimethyl-propionamide]	233 to 236
COc1ccccc1C1=CCN(C[C@@H](CC2CCCCC2)NC(=O)C2(C)CCCCC2)CC1 (as salt: hydrochloride) (hydrate or solvate) [Example 21, 1-Methyl-cyclohexanecarboxylic Acid {(1R)-1-Cyclohexylmethyl-2-[4-(2-methoxyphenyl)-3,6-dihydro-2H-pyridin-1-yl]-ethyl}-amide]	93 to 95
COc1ccccc1N1CCN(C[C@@H](CC2CCCCC2)NC(=O)C2CCCCC2)CC1 (as salt: hydrochloride) [Example 1, Cyclohexanecarboxylic Acid {(1R)-1-Cyclohexylmethyl-2-[4-(2-methoxyphenyl)-piperazin-1-yl]-ethyl}-amide]	121 to 131
COc1ccccc1N1CCN(C[C@@H](CC2CCCCC2)N(C)C(=O)C2CCCCC2)CC1 (as salt: hydrochloride) [Example 3, Cyclohexanecarboxylic Acid {(1R)-1-Cyclohexylmethyl-2-[4-(2-methoxyphenyl)-piperazin-1-yl]-ethyl}-methyl-amide]	222 to 224
COc1ccccc1N1CCN(C[C@@H](CC2CCCCC2)N(C)C(=O)C2(C)CCCCC2)CC1 (as salt: hydrochloride) [Example 4, 1-Methyl-cyclohexanecarboxylic Acid {(1R)-1-Cyclohexylmethyl-2-[4-(2-methoxyphenyl)-piperazin-1-yl]-ethyl}-methyl-amide]	208 to 210
CN(C(=O)C1(C)CCCCC1)[C@H](CC1CCCCC1)CN1CCN(c2cccc3c2OCCO3)CC1 (as salt: hydrochloride) [Example 6, 1-Methyl-cyclohexanecarboxylic Acid {(1R)-1-Cyclohexylmethyl-2-[4-(2,3-dihydro-benzo[1,4]dioxin-5-yl)-piperazin-1-yl]-ethyl}-methyl-amide]	219 to 220
CN(C(=O)C1(C)CCCCC1)[C@H](CC1CCCCC1)CN1CCN(c2cccc3[nH]ccc23)CC1 (as salt: hydrochloride) [Example 8]	253 to 254
O=C(N[C@H](CC1CCCCC1)CN1CCN(c2ncccn2)CC1)C1CCCCC1 (as salt: hydrochloride) [Example 10, Cyclohexanecarboxylic Acid {(1R)-1-Cyclohexylmethyl-2-[4-(pyrimidin-2-yl)-piperazin-1-yl]-ethyl}-amide]	121 to 123
O=C(N[C@H](CC1CCCCC1)CN1CCN(c2ncccn2)CC1)C1CCC1 (as salt: hydrochloride) [Example 11, Cyclobutane Carboxylic Acid {(1R)-1-Cyclohexylmethyl-2-[4-(pyrimidin-2-yl)-piperazin-1-yl]-ethyl}-amide]	112 to 114
COc1cccc(N2CCN(C[C@H](CC3CCCCC3)NC(=O)C3CCCCC3)CC2)n1 (as salt: hydrochloride) [Example 12, Cyclohexane Carboxylic Acid {(1S)-1-Cyclohexylmethyl-2-[4-(6methoxypyridin-2-yl)-piperazin-1-yl]-ethyl}-amide]	107 to 109
O=C(N[C@H](CC1CCCCC1)CN1CCN(c2nc3ccccc3s2)CC1)C1CCCCC1 (as salt: hydrochloride) [Example 13, Cyclohexanecarboxylic Acid {(1R)-1-Cyclohexylmethyl-2-[4-(benzothiazol-2-yl)-piperazin-1-yl]-ethyl}-amide]	229 to 232
O=C(N[C@H](CC1CCCCC1)CN1CCN(c2nccc3ccccc23)CC1)C1CCCCC1 (as salt: hydrochloride) [Example 14, Cyclohexanecarboxylic Acid {(1R)-1-Cyclohexylmethyl-2-[4-(isoquinolin-1-yl)-piperazin-1-yl]-ethyl}-amide]	155 to 159

From patent US6518272B2, “Cycloalkyl-substituted aryl-piperazines, piperidines and tetrahydropyridines as serotonergic agents” (Wyeth, priority 1998, dated 2003)
